According to ChEMBL document CHEMBL1201862, “PubChem BioAssay data set” (2004):
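The compound was tested at five concentrations on cells cultured in 96-well plates, with a 48-hour exposure period. At the GI50, growth is halved.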 Calls of active or inactive are those of the source. Rule as the data show it: active = GI50 up to about 1.1 µM and inactive = higher.

Experiments:
Experiment in all cases: NCI tumour cell line growth inhibition, 48 h
[1] = test system: 786-0
[2] = test system: A549
[3] = test system: ACHN
[4] = test system: CAKI-1
[5] = test system: CCRF-CEM
[6] = test system: COLO 205
[7] = test system: DLD-1
[8] = test system: EKVX
[9] = test system: HCC 2998
[10] = test system: HCT-116
[11] = test system: HCT-15
[12] = test system: HL-60
[13] = test system: HOP-18
[14] = test system: HOP-62
[15] = test system: HT-29
[16] = test system: IGROV-1
[17] = test system: K562
[18] = test system: KM-20L2
[19] = test system: KM12
[20] = test system: LOX IMVI
[21] = test system: LXFL 529
[22] = test system: M14
[23] = test system: M19-MEL
[24] = test system: MOLT-4
[25] = test system: Malme-3M
[26] = test system: NCI-H226
[27] = test system: NCI-H23
[28] = test system: NCI-H460
[29] = test system: NCI-H522
[30] = test system: OVCAR-3
[31] = test system: OVCAR-4
[32] = test system: OVCAR-5
[33] = test system: OVCAR-8
[34] = test system: RPMI-8226
[35] = test system: RXF 393
[36] = test system: RXF 631
[37] = test system: SF-268
[38] = test system: SF-295
[39] = test system: SF-539
[40] = test system: SK-MEL-28
[41] = test system: SK-MEL-2
[42] = test system: SK-MEL-5
[43] = test system: SN12C
[44] = test system: SNB-19
[45] = test system: SNB-75
[46] = test system: SNB-78
[47] = test system: SR
[48] = test system: SW-620
[49] = test system: U-251
[50] = test system: UACC-257
[51] = test system: UACC-62
[52] = test system: UO-31
[53] = test system: XF498

## CCOC(=O)/C(C(C)=O)=C1/N[C@H](C(=O)OCC)CS1
[1]
  GI50: > 100 µM (inactive)
[2]
  GI50: > 100 µM (inactive)
[3]
  GI50: > 100 µM (inactive)
[4]
  GI50: > 100 µM (inactive)
[5]
  GI50: > 100 µM (inactive)
[6]
  GI50: > 100 µM (inactive)
[7]
  GI50: > 100 µM (inactive)
[8]
  GI50: > 100 µM (inactive)
[9]
  GI50: > 100 µM (inactive)
[10]
  GI50: > 100 µM (inactive)
[11]
  GI50: > 100 µM
[12]
  GI50: > 100 µM (inactive)
[13]
  GI50: > 100 µM (inactive)
[14]
  GI50: > 100 µM (inactive)
[15]
  GI50: > 100 µM (inactive)
[16]
  GI50: > 100 µM (inactive)
[17]
  GI50: > 100 µM (inactive)
[18]
  GI50: > 100 µM (inactive)
[19]
  GI50: > 100 µM (inactive)
[20]
  GI50: > 100 µM (inactive)
[21]
  GI50: > 100 µM (inactive)
[22]
  GI50: > 100 µM (inactive)
[23]
  GI50: > 100 µM (inactive)
[24]
  GI50: > 100 µM (inactive)
[25]
  GI50: > 100 µM (inactive)
[26]
  GI50: > 100 µM (inactive)
[27]
  GI50: > 100 µM (inactive)
[28]
  GI50: > 100 µM (inactive)
[29]
  GI50: > 100 µM (inactive)
[30]
  GI50: > 100 µM (inactive)
[31]
  GI50: > 100 µM (inactive)
[32]
  GI50: > 100 µM (inactive)
[33]
  GI50: > 100 µM (inactive)
[34]
  GI50: > 100 µM (inactive)
[35]
  GI50: > 100 µM (inactive)
[36]
  GI50: > 100 µM (inactive)
[37]
  GI50: > 100 µM (inactive)
[38]
  GI50: > 100 µM (inactive)
[39]
  GI50: 10 µM (inactive)
[40]
  GI50: > 100 µM (inactive)
[41]
  GI50: > 100 µM (inactive)
[42]
  GI50: > 100 µM (inactive)
[43]
  GI50: > 100 µM (inactive)
[44]
  GI50: > 100 µM (inactive)
[45]
  GI50: > 100 µM (inactive)
[46]
  GI50: > 100 µM (inactive)
[47]
  GI50: > 100 µM (inactive)
[48]
  GI50: > 100 µM (inactive)
[49]
  GI50: > 100 µM (inactive)
[50]
  GI50: > 100 µM (inactive)
[51]
  GI50: > 100 µM (inactive)
[52]
  GI50: > 100 µM (inactive)
[53]
  GI50: > 100 µM (inactive)
